Experimental data reported in ChEMBL document CHEMBL1201862, “PubChem BioAssay data set” (2004).
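Interpolation was linear, between the two tested concentrations surrounding the appropriate level; five concentrations were tested over 48 hours in 96-well plates. GI50 = concentration required for 50% inhibition of growth.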 The source made the active and inactive calls. Rule as the data show it: active = GI50 up to about 1.1 µM and inactive = higher.

Experiments:
Test in all cases: growth of human tumour cells (NCI), 48 h
CCRF-CEM = tested on: CCRF-CEM
NCI-H522 = tested on: NCI-H522
A549 = tested on: A549
M14 = tested on: M14
HT-29 = tested on: HT-29
TK-10 = tested on: TK-10
HCC 2998 = tested on: HCC 2998
RPMI-8226 = tested on: RPMI-8226
IGROV-1 = tested on: IGROV-1
A498 = tested on: A498
NCI-H23 = tested on: NCI-H23
SN12C = tested on: SN12C
HOP-62 = tested on: HOP-62
OVCAR-5 = tested on: OVCAR-5
SK-OV-3 = tested on: SK-OV-3
U-251 = tested on: U-251
SF-295 = tested on: SF-295
UACC-62 = tested on: UACC-62

Measured: GI50

CCc1ccccc1NC(=O)C1=C(C)NC(C)=C(C(=O)Nc2ccccc2CC)C1c1ccc2c(c1)OCO2
inactive: CCRF-CEM 19.5 µM | NCI-H522 24.1 µM | A549 29.1 µM | M14 26.2 µM | HT-29 31.9 µM | TK-10 47.6 µM | HCC 2998 15.1 µM | RPMI-8226 14.5 µM | IGROV-1 29.4 µM | A498 25.1 µM | NCI-H23 31.5 µM | SN12C 41.2 µM | HOP-62 17.1 µM | OVCAR-5 27.1 µM | SK-OV-3 30.2 µM | U-251 26.9 µM | SF-295 33.3 µM

CC(=O)OC1(C#N)CC2OC1C1NC21 (stereo not given)
inactive: CCRF-CEM > 100 µM | NCI-H522 > 100 µM | A549 > 100 µM | M14 > 100 µM | TK-10 > 100 µM | UACC-62 > 100 µM | HCC 2998 > 100 µM | RPMI-8226 > 100 µM | IGROV-1 > 100 µM | A498 > 100 µM | NCI-H23 > 100 µM | SN12C > 100 µM | HOP-62 > 100 µM | OVCAR-5 > 100 µM | SK-OV-3 > 100 µM | U-251 > 100 µM

O=C(CNc1nncs1)NO
inactive: CCRF-CEM > 10 µM | NCI-H522 > 100 µM | A549 > 100 µM | M14 > 100 µM | HT-29 84.3 µM | TK-10 > 100 µM | UACC-62 > 100 µM | HCC 2998 > 100 µM | RPMI-8226 > 100 µM | IGROV-1 > 100 µM | A498 > 100 µM | NCI-H23 > 100 µM | SN12C > 100 µM | HOP-62 > 100 µM | OVCAR-5 > 100 µM | SK-OV-3 > 100 µM | U-251 > 100 µM | SF-295 > 100 µM

O=C1NC(=O)C2C1N(Cc1ccccc1)C(=O)N2Cc1ccccc1 (stereo not given)
inactive: CCRF-CEM > 100 µM | NCI-H522 > 100 µM | A549 > 100 µM | M14 > 100 µM | HT-29 > 100 µM | TK-10 > 100 µM | UACC-62 > 100 µM | HCC 2998 > 100 µM | RPMI-8226 > 100 µM | IGROV-1 > 100 µM | A498 > 100 µM | NCI-H23 > 100 µM | SN12C > 100 µM | HOP-62 > 100 µM | OVCAR-5 > 100 µM | SK-OV-3 > 100 µM | U-251 > 100 µM | SF-295 > 100 µM

N#CC(C#N)=Cc1cccc(Oc2ccccc2)c1
inactive: CCRF-CEM 20.6 µM | NCI-H522 21.2 µM | A549 70.3 µM | M14 19.6 µM | HT-29 22.7 µM | TK-10 31.7 µM | UACC-62 22.3 µM | HCC 2998 28.4 µM | RPMI-8226 20.9 µM | IGROV-1 26.8 µM | A498 > 63.2 µM | NCI-H23 14.9 µM | SN12C 22.5 µM | HOP-62 23.4 µM | OVCAR-5 > 67.1 µM | SK-OV-3 71.6 µM | U-251 13.6 µM | SF-295 20.2 µM

CC1C(=O)CCC1C(Sc1ccccc1)(Sc1ccccc1)Sc1ccccc1 (stereo not given)
inactive: CCRF-CEM 3.48 µM | NCI-H522 11.1 µM | A549 9.27 µM | M14 25 µM | HT-29 30.3 µM | TK-10 47.9 µM | UACC-62 18 µM | HCC 2998 20.8 µM | RPMI-8226 12.6 µM | IGROV-1 15.1 µM | A498 23.2 µM | NCI-H23 22.5 µM | SN12C 21.1 µM | HOP-62 37.4 µM | OVCAR-5 > 100 µM | SK-OV-3 80.2 µM | U-251 33.8 µM | SF-295 36.8 µM
